Assay [1] has as its system Nalm-6 cells. The assay is described as follows: Half-maximal apoptosis induction (AC50) in Nalm-6 cells. Type of assay: cell-based. To be noted: Homo sapiens; Nalm-6, 72 h, flow cytometry; read-out: Biological effect: half-maximal apoptosis induction (AC50). The protocol: Apoptosis Induction in Nalm-6 Cells after Treatment with WIL-071 or Different Steroid Derivatives.
(§1) The cells were incubated in 6-well plates with 1.0·10^5 cells/mL in two milliliters of medium with the respective steroid derivative in different concentrations. The included solvent control (DMSO) served as a control, which was subtracted from all the other measured values, in order not to take into account the spontaneous apoptosis of the cells that takes place independently of the concentration of active ingredient. After 72 h, a modified cell cycle analysis was performed, in order to quantify the proportion of apoptotic cells by flow cytometry. For each concentration of the steroid, the respective mean values f standard deviations, n=3 (*: p<0.05 vs. DMSO, t test) were determined. Using the curve of the dose-effect relationship (steroid concentration−apoptosis induction) formed from these measured values, the steroid concentration at which apoptosis was triggered in 50% of the tested leukemia cells was read.
(In general: A flow cytometer gives signals particle by particle.)

The test system of assay [2] is prednisolone-resistant leukemia cells. The assay is described as follows: Overcoming of prednisolone resistance. It is filed as cell-based. The following applies: 72 h. The procedure: as §1
Prednisolone resistance is said to be overcome if the induction of apoptosis in prednisolone-resistant leukemia cells is as high as it is in normal leukemia cells.

Among the data in patent US20240398836A1, “EPOXY STEROIDS” (priority 2021, published 2024) are AC50 and EC50 values, retold here.

Some results are limits rather than exact numbers.

For the compound `CC(C)CCC[C@@H](C)[C@H]1CC[C@H]2[C@@H]3[C@H]4OC[C@@]5(CC[C@H](O)C[C@]5(OCc5ccccc5)C4=O)[C@H]3CC[C@]12C` [WIL-242b, 5α-benzyloxy-3β-hydroxy-7β,19-epoxy-cholestan-6-one], the AC50 (in general, the midpoint of the concentration-response curve, whichever way the signal moves) in assay [1] came to 37 µM. Moreover, the EC50 (as a rule, the concentration needed to bring the measured effect to its halfway point) in assay [2] is 40 µM.
Take `CC(C)CCC[C@@H](C)[C@H]1CC[C@H]2[C@@H]3[C@H]4OC[C@@]5(CCC(=O)C[C@]5(O)C4=O)[C@H]3CC[C@]12C` [WIL-241, 5α-hydroxy-7β,19-epoxy-cholestane-3,6-dione]: in assay [1], the AC50 was 41 µM.
For `CC(C)CCC[C@@H](C)[C@H]1CC[C@H]2[C@@H]3[C@H]4OC[C@@]5(CC=CC[C@]5(O)C4=O)[C@H]3CC[C@]12C` [TAS-S392, 7β,19-epoxy-5α-hydroxy-cholest-2-en-6-one], the half-maximal activity concentration (AC50) in assay [1] was around 46 µM. Also, the half-maximal effective concentration (EC50) in assay [2] is around 39 µM.
In the same order, the values of `CC[C@H](CC[C@@H](C)[C@H]1CC[C@H]2[C@@H]3[C@H]4OC[C@@]5(CC[C@H](OC(C)=O)C[C@]5(O)C4=O)[C@H]3CC[C@]12C)C(C)C` [WIL-DK-08, 3β-acetoxy-5α-hydroxy-7β,19-epoxy-stigmastan-6-one] are 50 µM and around 40 µM.
For the compound `COC(=O)O[C@H]1CC[C@@]23CO[C@@H](C(=O)[C@@]2(O)C1)[C@H]1[C@@H]2CC[C@H]([C@H](C)CCCC(C)C)[C@@]2(C)CC[C@@H]13` [WIL357, 7β,19-epoxy-5α-hydroxy-6-on-cholestan-3β-yl-methyl carbonate], the AC50 in assay [1] was above 50 µM. This compound registered an EC50 in assay [2] above 50 µM.
For the compound `CC(=O)O[C@@H]1CC[C@@]23CO[C@@H](C(=O)[C@@]2(O)C1)[C@H]1[C@@H]2CC[C@H]([C@H](C)CCCC(C)C)[C@@]2(C)CC[C@@H]13` [TAS-S405, 3α-acetoxy-5α-hydroxy-7β,19-epoxy-cholestan-6-one], the AC50 in assay [1] came out at 90 µM. Further, the EC50 in assay [2] is around 20 µM.
The matching figures for `C=C(CC(=O)O[C@H]1CC[C@@]23CO[C@@H](C(=O)[C@@]2(O)C1)[C@H]1[C@@H]2CC[C@H]([C@H](C)CCCC(C)C)[C@@]2(C)CC[C@@H]13)C(=O)OC` [WIL367, 4-(7β,19-epoxy-5α-hydroxy-6-on-cholestan-3β-yl)-1-methyl ester of itaconic acid]: around 8 µM and around 12.5 µM.
In the same order, the values of `CC(C)CCC[C@@H](C)[C@H]1CC[C@H]2[C@@H]3[C@H]4OC[C@@]5(CC[C@H](OC(=O)CO)C[C@]5(O)C4=O)[C@H]3CC[C@]12C` [WIL364, (7β,19-epoxy-5α-hydroxy-6-on-cholestan-3β-yl) ester of glycolic acid] are around 18 µM and around 17.5 µM.
In the same order, the values of `CC(C)CCC[C@@H](C)[C@H]1CC[C@H]2[C@@H]3[C@H]4OC[C@@]5(CC[C@H](O)C[C@]5(O)C4(C)O)[C@H]3CC[C@]12C` (stereo partly drawn) [TAS-S406, 7β,19-epoxy-6α-methylcholestan-3β,5α,6β-triol] are 13 µM and around 17 µM.
On to `CC(C)CCC[C@@H](C)[C@H]1CC[C@H]2[C@@H]3[C@H]4OC[C@@]5(CCC(=O)C=C5C4=O)[C@H]3CC[C@]12C` [WIL-270, 7β,19-epoxy-cholest-4-en-3,6-dione], for which, in assay [1], the AC50 is 20 µM. Moreover, in assay [2], a half-maximal effect (EC50) was put at 18 µM.
In the case of `CC(C)CCC[C@@H](C)[C@H]1CC[C@H]2[C@@H]3[C@H]4OC[C@@]5(CC[C@H](OC(=O)CNC(=O)OC(C)(C)C)C[C@]5(O)C4=O)[C@H]3CC[C@]12C` [WIL360, N-Boc-glycin (7β,19-epoxy-5α-hydroxy-6-on-cholestan-3β-yl) ester], in assay [1], the AC50 is above 20 µM. Moreover, a half-maximal response in assay [2] (EC50) required 20 µM.
In the same order, the values of `CC(C)CCC[C@@H](C)[C@H]1CC[C@H]2[C@@H]3[C@H]4OC[C@@]5(CC[C@@H](O)C[C@]5(O)C4=O)[C@H]3CC[C@]12C` [TAS-S403, 3α,5α-dihydroxy-7β,19-epoxy-cholestan-6-one] are 100 µM and 20 µM.
